Reference: the supplement of paper PMC11424490

What was measured:
SW837 = assay: combination cScore with adagrasib (Bliss gap around IC50) (%PoC); higher = stronger additive effect
Experimental: (§1)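 Combination screen of 179 inhibitors with the KRAS G12C inhibitor adagrasib (MRTX849) in dose matrices, CellTiter-Glo readout in NCI-H2122 (72 h), SW837 (144 h) and NCI-H358 cells. The cScore is the mean Bliss-independence gap (expected minus observed viability, in %PoC) over a 3x3 field around the IC50s of both drugs. Positive means additive, and >~10 is stated as clear additive.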

NCI-H2122 = assay: as above
Experimental: as §1

Row | Structure (SMILES) | combination cScore with adagrasib (SW837) | combination cScore with adagrasib (NCI-H2122)
1 | CC(O)(CS(=O)(=O)c1ccc(F)cc1)C(=O)Nc1ccc(C#N)c(C(F)(F)F)c1 (configuration not stated) [Bicalutamide] + C=C(F)C(=O)N1CCN(c2nc(OC[C@@H]3CCCN3C)nc3c2CCN(c2cccc4cccc(Cl)c24)C3)C[C@@H]1CC#N [adagrasib] | 2.23 | 4.44
2 | CO[C@H]1CC[C@H](n2c([C@@H]3CCCC(=O)N3c3ccc(F)c(F)c3)nc3cc(-c4c(C)noc4C)ccc32)CC1 [CCS1477] + C=C(F)C(=O)N1CCN(c2nc(OC[C@@H]3CCCN3C)nc3c2CCN(c2cccc4cccc(Cl)c24)C3)C[C@@H]1CC#N [adagrasib] | 7.35 | -1.66
3 | O=C(O)CCCCC(CCSCc1ccccc1)SCc1ccccc1 (configuration not stated) [CPI-613] + C=C(F)C(=O)N1CCN(c2nc(OC[C@@H]3CCCN3C)nc3c2CCN(c2cccc4cccc(Cl)c24)C3)C[C@@H]1CC#N [adagrasib] | 1.41 | -5.48
4 | CCCCCOC(=O)Nc1nc(=O)n([C@@H]2O[C@H](C)[C@@H](O)[C@H]2O)cc1F [Capecitabin] + C=C(F)C(=O)N1CCN(c2nc(OC[C@@H]3CCCN3C)nc3c2CCN(c2cccc4cccc(Cl)c24)C3)C[C@@H]1CC#N [adagrasib] | 2.14 | -6.31
5 | C[C@H](CS)C(=O)N1CCC[C@H]1C(=O)O [Captopril] + C=C(F)C(=O)N1CCN(c2nc(OC[C@@H]3CCCN3C)nc3c2CCN(c2cccc4cccc(Cl)c24)C3)C[C@@H]1CC#N [adagrasib] | -3.8 | -0.24
6 | O=C(O)C1(C(=O)O)CCC1.[NH2-].[NH2-].[Pt+2] [Carboplatin] + C=C(F)C(=O)N1CCN(c2nc(OC[C@@H]3CCCN3C)nc3c2CCN(c2cccc4cccc(Cl)c24)C3)C[C@@H]1CC#N [adagrasib] | -6.32 | -1.99
7 | COc1cc2c(Oc3ccc4[nH]c(C)cc4c3F)ncnc2cc1OCCCN1CCCC1 [Cediranib] + C=C(F)C(=O)N1CCN(c2nc(OC[C@@H]3CCCN3C)nc3c2CCN(c2cccc4cccc(Cl)c24)C3)C[C@@H]1CC#N [adagrasib] | -0.83 | -4.17
8 | N.N.[Cl][Pt][Cl] [Cisplatin] + C=C(F)C(=O)N1CCN(c2nc(OC[C@@H]3CCCN3C)nc3c2CCN(c2cccc4cccc(Cl)c24)C3)C[C@@H]1CC#N [adagrasib] | -1.26 | -1.07
9 | Nc1nc(Cl)nc2c1ncn2[C@@H]1O[C@H](CO)[C@@H](O)[C@@H]1F [Clofarabine] + C=C(F)C(=O)N1CCN(c2nc(OC[C@@H]3CCCN3C)nc3c2CCN(c2cccc4cccc(Cl)c24)C3)C[C@@H]1CC#N [adagrasib] | 1.46 | -3.89
10 | O=C(c1ccc(F)c(F)c1Nc1ccc(I)cc1F)N1CC(O)([C@@H]2CCCCN2)C1 [Cobimetinib] + C=C(F)C(=O)N1CCN(c2nc(OC[C@@H]3CCCN3C)nc3c2CCN(c2cccc4cccc(Cl)c24)C3)C[C@@H]1CC#N [adagrasib] | 13.2 | 2.78
11 | Nc1ccn([C@@H]2O[C@H](CO)[C@@H](O)[C@@H]2O)c(=O)n1 [Cytarabin] + C=C(F)C(=O)N1CCN(c2nc(OC[C@@H]3CCCN3C)nc3c2CCN(c2cccc4cccc(Cl)c24)C3)C[C@@H]1CC#N [adagrasib] | 6.75 | -0.23
12 | CC(C)(C)c1nc(-c2cccc(NS(=O)(=O)c3c(F)cccc3F)c2F)c(-c2ccnc(N)n2)s1 [Dabrafenib] + C=C(F)C(=O)N1CCN(c2nc(OC[C@@H]3CCCN3C)nc3c2CCN(c2cccc4cccc(Cl)c24)C3)C[C@@H]1CC#N [adagrasib] | -0.35 | -9.32
13 | Nc1ncn([C@H]2C[C@H](O)[C@@H](CO)O2)c(=O)n1 [Decitabine] + C=C(F)C(=O)N1CCN(c2nc(OC[C@@H]3CCCN3C)nc3c2CCN(c2cccc4cccc(Cl)c24)C3)C[C@@H]1CC#N [adagrasib] | -0.47 | 3.82
14 | C[C@@H]1C[C@H]2[C@@H]3CCC4=CC(=O)C=C[C@]4(C)[C@@]3(F)[C@@H](O)C[C@]2(C)[C@@]1(O)C(=O)CO [Dexamethasone] + C=C(F)C(=O)N1CCN(c2nc(OC[C@@H]3CCCN3C)nc3c2CCN(c2cccc4cccc(Cl)c24)C3)C[C@@H]1CC#N [adagrasib] | -0.93 | -4.66
15 | CC(=O)O[C@@]12CO[C@@H]1C[C@H](O)[C@@]1(C)C(=O)[C@H](O)C3=C(C)[C@@H](OC(=O)[C@H](O)[C@@H](NC(=O)OC(C)(C)C)c4ccccc4)C[C@@](O)([C@@H](OC(=O)c4ccccc4)[C@H]21)C3(C)C [Docetaxel] + C=C(F)C(=O)N1CCN(c2nc(OC[C@@H]3CCCN3C)nc3c2CCN(c2cccc4cccc(Cl)c24)C3)C[C@@H]1CC#N [adagrasib] | 0.74 | 3.05
16 | COc1cccc2c1C(=O)c1c(O)c3c(c(O)c1C2=O)C[C@@](O)(C(=O)CO)C[C@@H]3O[C@H]1C[C@H](N)[C@H](O)[C@H](C)O1 [Doxorubicin] + C=C(F)C(=O)N1CCN(c2nc(OC[C@@H]3CCCN3C)nc3c2CCN(c2cccc4cccc(Cl)c24)C3)C[C@@H]1CC#N [adagrasib] | 4.49 | -0.16
17 | CN(NC(=O)CC(=O)NN(C)C(=S)c1ccccc1)C(=S)c1ccccc1 [Elesclomol] + C=C(F)C(=O)N1CCN(c2nc(OC[C@@H]3CCCN3C)nc3c2CCN(c2cccc4cccc(Cl)c24)C3)C[C@@H]1CC#N [adagrasib] | 6.34 | 2.19
18 | CNC(=O)c1ccc(N2C(=S)N(c3ccc(C#N)c(C(F)(F)F)c3)C(=O)C2(C)C)cc1F [Enzalutamide] + C=C(F)C(=O)N1CCN(c2nc(OC[C@@H]3CCCN3C)nc3c2CCN(c2cccc4cccc(Cl)c24)C3)C[C@@H]1CC#N [adagrasib] | 7.72 | 4.58
19 | COc1cc([C@@H]2c3cc4c(cc3[C@@H](O[C@@H]3O[C@@H]5CO[C@@H](C)O[C@H]5[C@H](O)[C@H]3O)[C@H]3COC(=O)[C@H]23)OCO4)cc(OC)c1O [Etoposide] + C=C(F)C(=O)N1CCN(c2nc(OC[C@@H]3CCCN3C)nc3c2CCN(c2cccc4cccc(Cl)c24)C3)C[C@@H]1CC#N [adagrasib] | -0.11 | 2.33
20 | CO[C@H]1C[C@@H]2CC[C@@H](C)[C@@](O)(O2)C(=O)C(=O)N2CCCC[C@H]2C(=O)O[C@H]([C@H](C)C[C@@H]2CC[C@@H](OCCO)[C@H](OC)C2)CC(=O)[C@H](C)/C=C(\C)[C@@H](O)[C@@H](OC)C(=O)[C@H](C)C[C@H](C)/C=C/C=C/C=C/1C [Everolimus] + C=C(F)C(=O)N1CCN(c2nc(OC[C@@H]3CCCN3C)nc3c2CCN(c2cccc4cccc(Cl)c24)C3)C[C@@H]1CC#N [adagrasib] | 1.15 | -6.03
21 | CN1CC[C@H](c2c(O)cc(O)c3c(=O)cc(-c4ccccc4Cl)oc23)[C@H](O)C1 [Flavopiridol] + C=C(F)C(=O)N1CCN(c2nc(OC[C@@H]3CCCN3C)nc3c2CCN(c2cccc4cccc(Cl)c24)C3)C[C@@H]1CC#N [adagrasib] | 2.43 | -0.29
22 | Nc1nc(F)nc2c1ncn2[C@@H]1O[C@H](CO)[C@@H](O)[C@@H]1O [Fludarabine] + C=C(F)C(=O)N1CCN(c2nc(OC[C@@H]3CCCN3C)nc3c2CCN(c2cccc4cccc(Cl)c24)C3)C[C@@H]1CC#N [adagrasib] | 2.57 | -6.95
23 | O=c1[nH]cc(F)c(=O)[nH]1 [Fluorouracil (5-FU)] + C=C(F)C(=O)N1CCN(c2nc(OC[C@@H]3CCCN3C)nc3c2CCN(c2cccc4cccc(Cl)c24)C3)C[C@@H]1CC#N [adagrasib] | -0.87 | 9.62
24 | C[C@]12CC[C@@H]3c4ccc(O)cc4C[C@@H](CCCCCCCCC[S+]([O-])CCCC(F)(F)C(F)(F)F)[C@H]3[C@@H]1CC[C@@H]2O (some centres not stated) [Fulvestrant] + C=C(F)C(=O)N1CCN(c2nc(OC[C@@H]3CCCN3C)nc3c2CCN(c2cccc4cccc(Cl)c24)C3)C[C@@H]1CC#N [adagrasib] | 2.82 | 3.46
25 | CN(C)c1ccccc1CN1CCCN(Cc2ccccc2N(C)C)C1c1ccncc1 [GANT61] + C=C(F)C(=O)N1CCN(c2nc(OC[C@@H]3CCCN3C)nc3c2CCN(c2cccc4cccc(Cl)c24)C3)C[C@@H]1CC#N [adagrasib] | -0.37 | 7.28
26 | N#CN=C(NCCCCCCOc1ccc(Cl)cc1)Nc1ccncc1 [GMX1778] + C=C(F)C(=O)N1CCN(c2nc(OC[C@@H]3CCCN3C)nc3c2CCN(c2cccc4cccc(Cl)c24)C3)C[C@@H]1CC#N [adagrasib] | 2.82 | -7.75
